ChEMBL document CHEMBL1287706 (Bioorg Med Chem, 2010)
Counter-ions that a name gives are not always drawn.

Target: Transporter (Rattus norvegicus, UniProt Q63380)
Experiment: biochemical
Type: tissue-based, Sprague-Dawley, Frontal cortex
Description: Displacement of [3H]nisoxetine from norepinephrine transporter in Sprague-Dawley rat frontal cortex after 1 hr by liquid scintillation counting

Transporter, sequence (Q63380 whole entry): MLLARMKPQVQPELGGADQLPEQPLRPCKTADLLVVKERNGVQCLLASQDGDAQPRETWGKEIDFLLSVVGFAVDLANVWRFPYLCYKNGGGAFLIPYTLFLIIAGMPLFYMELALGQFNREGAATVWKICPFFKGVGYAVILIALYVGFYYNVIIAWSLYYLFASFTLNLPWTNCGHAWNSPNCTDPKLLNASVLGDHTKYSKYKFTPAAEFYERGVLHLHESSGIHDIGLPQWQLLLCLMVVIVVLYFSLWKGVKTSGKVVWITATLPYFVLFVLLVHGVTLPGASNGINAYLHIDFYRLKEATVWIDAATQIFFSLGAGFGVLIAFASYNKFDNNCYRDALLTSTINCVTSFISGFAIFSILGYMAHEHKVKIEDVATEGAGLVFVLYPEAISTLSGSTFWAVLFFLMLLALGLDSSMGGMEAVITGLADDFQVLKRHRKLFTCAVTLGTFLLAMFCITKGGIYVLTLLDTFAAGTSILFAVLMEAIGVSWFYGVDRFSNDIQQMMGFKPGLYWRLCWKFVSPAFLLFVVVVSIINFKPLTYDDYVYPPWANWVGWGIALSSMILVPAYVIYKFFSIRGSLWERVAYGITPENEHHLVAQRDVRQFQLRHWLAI

In order of rising Ki:
1. Fc1ccc([C@@H]2CCNC[C@H]2COc2ccc3c(c2)OCO3)cc1 [PAROXETINE HYDROCHLORIDE]  59 nM
2. COc1ccc(COC(=O)C2(c3ccc(Cl)c(Cl)c3)CCN(C)CC2)cc1  300 nM
3. CN1CCC(C(=O)OCc2ccc([N+](=O)[O-])cc2)(c2ccc(Cl)c(Cl)c2)CC1  333 nM
4. CN1CCC(C(=O)OCc2ccc(Br)cc2)(c2ccc(Cl)c(Cl)c2)CC1  580 nM
5. CN1CCC(C(=O)OCc2ccccc2)(c2ccc(Cl)c(Cl)c2)CC1  901 nM
6. O=C(OCc1ccc([N+](=O)[O-])cc1)C1(c2ccc3ccccc3c2)CCNCC1  937 nM
7. O=C(OCc1ccc([N+](=O)[O-])cc1)C1(c2ccc(Cl)c(Cl)c2)CCNCC1  1440 nM
8. O=C(OCc1ccc([N+](=O)[O-])cc1)C1(c2ccc(I)cc2)CCNCC1  2070 nM
9. COc1ccc(COC(=O)C2(c3ccc4ccccc4c3)CCNCC2)cc1  2350 nM
10. CN1CCC(C(=O)OCc2ccc3ccccc3c2)(c2ccc(Cl)c(Cl)c2)CC1  2550 nM
11. COc1ccc(COC(=O)C2(c3ccc(I)cc3)CCNCC2)cc1  2730 nM
12. COc1ccc(COC(=O)C2(c3ccc(Cl)c(Cl)c3)CCNCC2)cc1  3130 nM
13. O=C(OCc1ccc(Cl)c(Cl)c1)C1(c2ccc(I)cc2)CCNCC1  6060 nM
14. O=C(OCc1ccc(C(F)(F)F)cc1)C1(c2ccc(Cl)c(Cl)c2)CCNCC1  7900 nM
15. O=C(OCc1ccc(Cl)c(Cl)c1)C1(c2ccc(Cl)c(Cl)c2)CCNCC1  11900 nM
16. O=C(OCc1ccc(Cl)c(Cl)c1)C1(c2ccc3ccccc3c2)CCNCC1  16600 nM
17. CCOC(=O)C1(c2ccc3ccccc3c2)CCN(C)CC1  71000 nM
18. CCOC(=O)C1(c2ccc(I)cc2)CCN(C)CC1  519000 nM

Target: Sodium-dependent serotonin transporter (Rattus norvegicus, UniProt P31652);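 note: radioligand competition using [3H]citalopram bound to serotonin transporter in Sprague-Dawley rat brain tissue, 1 h incubation, bound radioactivity quantified by liquid scintillation counting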
Sequence (P31652 whole entry): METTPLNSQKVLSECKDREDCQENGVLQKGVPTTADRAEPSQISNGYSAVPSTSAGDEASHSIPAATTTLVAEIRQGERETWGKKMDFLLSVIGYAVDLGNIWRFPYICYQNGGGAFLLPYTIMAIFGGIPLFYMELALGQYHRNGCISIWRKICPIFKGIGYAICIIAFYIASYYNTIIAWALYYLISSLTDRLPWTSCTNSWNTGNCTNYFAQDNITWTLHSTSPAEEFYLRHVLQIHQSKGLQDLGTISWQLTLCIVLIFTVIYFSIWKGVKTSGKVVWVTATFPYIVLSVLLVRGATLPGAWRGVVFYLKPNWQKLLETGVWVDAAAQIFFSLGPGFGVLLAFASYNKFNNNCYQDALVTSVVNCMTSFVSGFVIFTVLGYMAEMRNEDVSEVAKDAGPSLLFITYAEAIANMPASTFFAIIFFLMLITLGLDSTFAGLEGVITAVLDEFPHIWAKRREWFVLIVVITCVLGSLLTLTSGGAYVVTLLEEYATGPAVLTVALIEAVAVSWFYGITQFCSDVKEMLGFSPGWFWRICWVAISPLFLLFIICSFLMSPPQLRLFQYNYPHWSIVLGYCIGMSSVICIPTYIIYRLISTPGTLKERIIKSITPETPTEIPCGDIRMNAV
Experiment: not given
Design: species or system Sprague-Dawley

In order of falling Ki:
1. CN1CCC(C(=O)OCc2ccccc2)(c2ccc(-c3ccccc3)cc2)CC1  49.5 nM
2. O=C(OCc1ccc(C(F)(F)F)cc1)C1(c2ccc(Cl)c(Cl)c2)CCNCC1  46.7 nM
3. O=C(OCc1ccc(Cl)c(Cl)c1)C1(c2ccc(Cl)c(Cl)c2)CCNCC1  30.2 nM
4. O=C(OCc1ccc(Cl)c(Cl)c1)C1(c2ccc3ccccc3c2)CCNCC1  26.5 nM
5. CCOC(=O)C1(c2ccc(Cl)c(Cl)c2)CCNCC1  21.6 nM
6. CCOC(=O)C1(c2ccc3ccccc3c2)CCNCC1  14.1 nM
7. CN1CCC(C(=O)OCc2ccc(I)cc2)(c2ccc(Cl)c(Cl)c2)CC1  13.2 nM
8. CN1CCC(C(=O)OCc2ccc(-c3ccccc3)cc2)(c2ccc(Cl)c(Cl)c2)CC1  10.9 nM
9. COc1ccc(COC(=O)C2(c3ccc(Cl)c(Cl)c3)CCNCC2)cc1  10.2 nM
10. CN1CCC(C(=O)OCc2ccc3ccccc3c2)(c2ccc(Cl)c(Cl)c2)CC1  9.9 nM
11. O=C(OCc1ccccc1)C1(c2ccc(Cl)c(Cl)c2)CCNCC1  9.2 nM
12. CN1CCC(C(=O)OCc2ccc(Br)cc2)(c2ccc(Cl)c(Cl)c2)CC1  7 nM
13. O=C(OCc1ccc([N+](=O)[O-])cc1)C1(c2ccc(Cl)c(Cl)c2)CCNCC1  6.4 nM
14. O=C(OCc1ccc([N+](=O)[O-])cc1)C1(c2ccc(I)cc2)CCNCC1  5.9 nM
15. O=C(OCc1ccc(Cl)c(Cl)c1)C1(c2ccc(I)cc2)CCNCC1  5.9 nM
16. CN1CCC(C(=O)OCc2ccc(Cl)c(Cl)c2)(c2ccc(Cl)c(Cl)c2)CC1  4.3 nM
17. CN1CCC(C(=O)OCc2ccccc2)(c2ccc(Cl)c(Cl)c2)CC1  3.9 nM
18. CCOC(=O)C1(c2ccc(-c3ccccc3)cc2)CCNCC1  3.3 nM
19. COc1ccc(COC(=O)C2(c3ccc4ccccc4c3)CCNCC2)cc1  2.9 nM
20. CCOC(=O)C1(c2ccc(I)cc2)CCNCC1  2.5 nM
21. O=C(OCc1ccccc1)C1(c2ccc(-c3ccccc3)cc2)CCNCC1  2 nM
22. O=C(OCc1ccc([N+](=O)[O-])cc1)C1(c2ccc3ccccc3c2)CCNCC1  2 nM
23. COc1ccc(COC(=O)C2(c3ccc(Cl)c(Cl)c3)CCN(C)CC2)cc1  1.7 nM
24. CN1CCC(C(=O)OCc2ccc([N+](=O)[O-])cc2)(c2ccc(Cl)c(Cl)c2)CC1  1 nM
25. COc1ccc(COC(=O)C2(c3ccc(I)cc3)CCNCC2)cc1  0.6 nM

Target: Sodium-dependent dopamine transporter (Rattus norvegicus, UniProt P23977)
Sequence (P23977 whole entry): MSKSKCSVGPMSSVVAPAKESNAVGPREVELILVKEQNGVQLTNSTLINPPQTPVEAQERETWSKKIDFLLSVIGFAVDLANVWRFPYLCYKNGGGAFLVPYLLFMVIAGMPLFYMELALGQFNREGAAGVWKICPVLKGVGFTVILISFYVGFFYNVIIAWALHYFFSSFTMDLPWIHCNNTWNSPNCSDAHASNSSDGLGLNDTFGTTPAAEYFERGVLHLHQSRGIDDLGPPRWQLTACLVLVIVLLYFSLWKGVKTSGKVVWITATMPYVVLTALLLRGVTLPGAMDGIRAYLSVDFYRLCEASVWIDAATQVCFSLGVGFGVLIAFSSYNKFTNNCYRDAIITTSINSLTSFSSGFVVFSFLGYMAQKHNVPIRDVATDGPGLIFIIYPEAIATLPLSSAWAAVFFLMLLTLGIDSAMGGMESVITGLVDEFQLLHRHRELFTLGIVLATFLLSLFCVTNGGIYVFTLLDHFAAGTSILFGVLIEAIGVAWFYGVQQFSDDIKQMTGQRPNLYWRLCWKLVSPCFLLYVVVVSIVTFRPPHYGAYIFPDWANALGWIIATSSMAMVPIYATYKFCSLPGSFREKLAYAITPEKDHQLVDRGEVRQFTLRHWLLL
Experiment: biochemical
Type: tissue-based, Sprague-Dawley, Brain

In order of falling Ki:
1. CN1CCC(C(=O)OCc2ccc(-c3ccccc3)cc2)(c2ccc(Cl)c(Cl)c2)CC1  5630 nM
2. CN1CCC(C(=O)OCc2ccc(Cl)c(Cl)c2)(c2ccc(Cl)c(Cl)c2)CC1  5230 nM
3. CN1CCC(C(=O)OCc2ccc3ccccc3c2)(c2ccc(Cl)c(Cl)c2)CC1  4910 nM
4. O=C(OCc1ccc(Cl)c(Cl)c1)C1(c2ccc(I)cc2)CCNCC1  4340 nM
5. CCOC(=O)C1(c2ccc(I)cc2)CCNCC1  3500 nM
6. CN1CCC(C(=O)OCc2ccc(I)cc2)(c2ccc(Cl)c(Cl)c2)CC1  3470 nM
7. CCOC(=O)C1(c2ccc(-c3ccccc3)cc2)CCNCC1  3210 nM
8. O=C(OCc1ccc(Cl)c(Cl)c1)C1(c2ccc3ccccc3c2)CCNCC1  3210 nM
9. CN1CCC(C(=O)OCc2ccccc2)(c2ccc(Cl)c(Cl)c2)CC1  2970 nM
10. COc1ccc(COC(=O)C2(c3ccc(I)cc3)CCNCC2)cc1  2920 nM
11. O=C(OCc1ccc(Cl)c(Cl)c1)C1(c2ccc(Cl)c(Cl)c2)CCNCC1  2890 nM
12. COc1ccc(COC(=O)C2(c3ccc(Cl)c(Cl)c3)CCN(C)CC2)cc1  2790 nM
13. CN1CCC(C(=O)OCc2ccc(Br)cc2)(c2ccc(Cl)c(Cl)c2)CC1  2560 nM
14. CN1CCC(C(=O)OCc2ccccc2)(c2ccc(-c3ccccc3)cc2)CC1  2310 nM
15. O=C(OCc1ccc(C(F)(F)F)cc1)C1(c2ccc(Cl)c(Cl)c2)CCNCC1  2240 nM
16. O=C(OCc1ccc([N+](=O)[O-])cc1)C1(c2ccc(I)cc2)CCNCC1  1780 nM
17. CN1CCC(C(=O)OCc2ccc([N+](=O)[O-])cc2)(c2ccc(Cl)c(Cl)c2)CC1  1530 nM
18. O=C(OCc1ccc([N+](=O)[O-])cc1)C1(c2ccc(Cl)c(Cl)c2)CCNCC1  1300 nM
19. COc1ccc(COC(=O)C2(c3ccc(Cl)c(Cl)c3)CCNCC2)cc1  1260 nM
20. O=C(OCc1ccccc1)C1(c2ccc(-c3ccccc3)cc2)CCNCC1  1110 nM
21. O=C(OCc1ccccc1)C1(c2ccc(Cl)c(Cl)c2)CCNCC1  919 nM
22. COc1ccc(COC(=O)C2(c3ccc4ccccc4c3)CCNCC2)cc1  889 nM
23. O=C(OCc1ccc([N+](=O)[O-])cc1)C1(c2ccc3ccccc3c2)CCNCC1  732 nM
24. CCOC(=O)C1(c2ccc3ccccc3c2)CCNCC1  710 nM
25. CCOC(=O)C1(c2ccc(Cl)c(Cl)c2)CCNCC1  321 nM
